Experimental findings from patent US8431593B2, “Heteroaryl amide derivatives” (H. Lundbeck A/S, priority 2006, dated 2013) are described below.

For orientation: pIC50 means the IC50 on a negative log10 scale, so that one unit is a factor of ten.

pIC50: −log10 of the molar value. Where only a bound is given, the exact number is not on record here.

In the assay the target is T1, P2X7 receptor (Homo sapiens, UniProt Q99572).
T1 construct: host or cells: SH-SY5Y
T1 sequence (Q99572 1-595): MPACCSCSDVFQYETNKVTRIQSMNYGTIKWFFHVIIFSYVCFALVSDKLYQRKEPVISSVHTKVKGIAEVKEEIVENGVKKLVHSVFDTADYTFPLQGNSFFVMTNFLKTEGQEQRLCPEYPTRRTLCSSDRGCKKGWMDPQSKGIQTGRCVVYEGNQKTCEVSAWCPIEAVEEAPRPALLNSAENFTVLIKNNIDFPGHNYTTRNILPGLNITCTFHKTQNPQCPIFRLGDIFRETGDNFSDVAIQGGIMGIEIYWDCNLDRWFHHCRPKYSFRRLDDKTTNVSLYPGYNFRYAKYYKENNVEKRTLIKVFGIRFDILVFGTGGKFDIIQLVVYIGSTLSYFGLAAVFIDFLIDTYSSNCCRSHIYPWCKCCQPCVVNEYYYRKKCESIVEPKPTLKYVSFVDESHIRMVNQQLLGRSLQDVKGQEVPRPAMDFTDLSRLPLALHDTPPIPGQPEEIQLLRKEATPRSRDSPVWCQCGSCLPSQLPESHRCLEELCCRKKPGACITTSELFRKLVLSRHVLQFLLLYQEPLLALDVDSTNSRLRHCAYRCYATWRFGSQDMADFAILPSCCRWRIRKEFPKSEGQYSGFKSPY
Nature of the assay: P2X7 calcium mobilization assay, high throughput, antagonist activity (Example 4A). In kind it is cell-based. As to conditions: 50% decrease in the fluorescence response of cells exposed to 80 μM of 2′(3′)-O-(4-benzoyl-benzoyl)adenosine 5′-triphosphate; determined as in Example 4A; read-out: IC50. The method in brief:
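Cells plated 100,000/well the day before; after 1 h dye loading and one rinse, cells were preincubated 1 h at room temperature with test compound. Calcium mobilization then read on FLIPR^TETRA; maximum RFU corrected by subtracting mean no-agonist response and referenced to mean agonist-control maximum.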
In general terms: A change in cytosolic calcium serves as a functional read-out for many receptors and channels.
With `CN(C)C1CCCN(C(=O)Cc2cn3c(C(=O)NCC4(c5ccc(C(F)(F)F)cc5)CCCCC4)cccc3n2)C1` (stereo not shown) [Compound 892, 2-{2-[3-(dimethylamino)piperidin-1-yl]-2-oxoethyl}-N-({1-[4-(trifluoromethyl)phenyl]cyclohexyl}methyl) imidazo[1,2-a] pyridine-5-carboxamide], the pIC50 was greater than 5.70.
The result for `CN(C)C1CCCN(C(=O)Cc2cn3c(C(=O)NCC4(c5cccnc5)CCCCC4)cccc3n2)C1` (stereo not shown) [Compound 893, 2-{2-[3-(dimethylamino)piperidin-1-yl]-2-oxoethyl}-N-[(1-pyridin-3-ylcyclohexyl)methyl] imidazo[1,2-a] pyridine-5-carboxamide] reads greater than 5.70; that for `CN(C)C1CCCN(C(=O)Cc2cn3c(C(=O)NCC4(c5ccc(Cl)cc5)CCCCC4)cccc3n2)C1` (stereo not shown) [Compound 894, N-{[1-(4-chlorophenyl)cyclohexyl]methyl}-2-{2-[3-(dimethylamino)piperidin-1-yl]-2-oxoethyl} imidazo[1,2-a] pyridine-5-carboxamide], greater than 5.70.
The result for `COC1CCN(C(=O)Cc2cn3c(C(=O)NCC4(c5ccc(C(F)(F)F)cc5)CCCCC4)cccc3n2)CC1` [Compound 896, 2-[2-(4-methoxypiperidin-1 yl)-2-oxoethyl]-N-({1-[4-(trifluoromethyl)phenyl]cyclohexyl}methyl) imidazo[1,2-a] pyridine-5-carboxamide] reads greater than 5.70.
Then `COC1CCN(C(=O)Cc2cn3c(C(=O)NCC4(c5cccnc5)CCCCC4)cccc3n2)CC1` [Compound 897, 2-[2-(4-methoxypiperidin-1-yl)-2-oxoethyl]-N-[(1-pyridin-3-ylcyclohexyl)methyl] imidazo[1,2-a] pyridine-5-carboxamide], with greater than 5.70; and `COC1CCN(C(=O)Cc2cn3c(C(=O)NCC4(c5ccc(Cl)cc5)CCCCC4)cccc3n2)CC1` [Compound 898, N-{[1-(4-chlorophenyl)cyclohexyl]methyl}-2-[2-(4-methoxypiperidin-1-yl)-2-oxoethyl] imidazo[1,2-a] pyridine-5-carboxamide], with greater than 5.70; and `CN(C)C1CCCN(C(=O)Cc2cn3c(C(=O)NCC4(c5ccc(Cl)cc5)CCOCC4)cccc3n2)C1` (stereo not shown) [Compound 899, N-{[4-(4-chlorophenyl)tetrahydro-2H-pyran-4-yl]methyl}-2-{2-[3-(dimethylamino)piperidin-1-yl]-2-oxoethyl} imidazo[1,2-a] pyridine-5-carboxamide], with greater than 5.70.
Turning to `O=C(O)CCc1cn2c(C(=O)NCC3(c4ccc(Cl)cc4)CCCCC3)cccc2n1` [Compound 900, 3-[5-({[1-(4-chlorophenyl)cyclohexyl]methyl}carbamoyl)imidazo[1,2-a]pyridin-2-yl] propanoic acid], the pIC50 is greater than 5.70.
Then `CCOC(=O)Cc1nnn(Cc2cn3c(C(=O)NCC45CC6CC(CC(C6)C4)C5)cccc3n2)n1` [Compound 901, ethyl [2-({5-[(adamantan-1-ylmethyl)carbamoyl]imidazo[1,2-a]pyridin-2-yl}methyl)-2H-tetrazol-5-yl]acetate], with greater than 5.70; and `CCOC(=O)Cc1nnnn1Cc1cn2c(C(=O)NCC34CC5CC(CC(C5)C3)C4)cccc2n1` [Compound 902, ethyl [1-({5-[(adamantan-1-ylmethyl)carbamoyl]imidazo[1,2-a]pyridin-2-yl}methyl)-1H-tetrazol-5-yl]acetate], with greater than 5.70; and `O=C(O)Cc1nnn(Cc2cn3c(C(=O)NCC45CC6CC(CC(C6)C4)C5)cccc3n2)n1` [Compound 903, [2-({5-[(adamantan-1-ylmethyl)carbamoyl]imidazo[1,2-a]pyridin-2-yl}methyl)-2H-tetrazol-5-yl]acetic acid], with greater than 5.70.
For `O=C(O)Cc1nnnn1Cc1cn2c(C(=O)NCC34CC5CC(CC(C5)C3)C4)cccc2n1` [Compound 904, [1-({5-[(adamantan-1-ylmethyl)carbamoyl]imidazo[1,2-a]pyridin-2-yl}methyl)-1H-tetrazol-5-yl]acetic acid], the pIC50 is greater than 5.70.
Then `CCCC(C(=O)OCC)c1cn2c(C(=O)NCC34CC5CC(CC(C5)C3)C4)cccc2n1` (stereo not shown) [Compound 905, ethyl 2-{5-[(adamantan-1-ylmethyl)carbamoyl]imidazo[1,2-a]pyridin-2-yl}pentanoate], with greater than 5.70.
Then `CCCCC(C(=O)OCC)c1cn2c(C(=O)NCC34CC5CC(CC(C5)C3)C4)cccc2n1` (stereo not shown) [Compound 906, ethyl 2-{5-[(adamantan-1-ylmethyl)carbamoyl]imidazo[1,2-a]pyridin-2-yl} hexanoate], with greater than 5.70; and `CCOC(=O)C(CCC(C)C)c1cn2c(C(=O)NCC34CC5CC(CC(C5)C3)C4)cccc2n1` (stereo not shown) [Compound 907, ethyl 2-{5-[(adamantan-1-ylmethyl)carbamoyl]imidazo[1,2-a]pyridin-2-yl}-5-methylhexanoate], with greater than 5.70; and `CCCCC(C(=O)O)c1cn2c(C(=O)NCC34CC5CC(CC(C5)C3)C4)cccc2n1` (stereo not shown) [Compound 908, 2-{5-[(adamantan-1-ylmethyl)carbamoyl]imidazo[1,2-a]pyridin-2-yl} hexanoic acid], with greater than 5.70.
The result for `CCCC(C(=O)O)c1cn2c(C(=O)NCC34CC5CC(CC(C5)C3)C4)cccc2n1` (stereo not shown) [Compound 909, 2-{5-[(adamantan-1-ylmethyl)carbamoyl]imidazo[1,2-a]pyridin-2-yl}pentanoic acid] reads greater than 5.70.
In the case of `N[C@@H]1CCN(Cc2cn3c(C(=O)NCC4(c5ccc(Cl)cc5)CCOCC4)cccc3n2)C1` [Compound 910, 2-{[(3R)-3-aminopyrrolidin-1-yl]methyl}-N-{[4-(4-chlorophenyl)tetrahydro-2H-pyran-4-yl]methyl} imidazo[1,2-a] pyridine-5-carboxamide], the pIC50 is greater than 5.70.
The result for `O=C(Cc1cn2c(C(=O)NCC34CC5CC(CC(C5)C3)C4)cccc2n1)N[C@H]1CCNC1` [Compound 911, N-(adamantan-1-ylmethyl)-2-{2-oxo-2-[(3S)-pyrrolidin-3-ylamino]ethyl} imidazo [1,2-a]pyridine-5-carboxamide] reads greater than 5.70.
The result for `CC(C)CCC(C(=O)O)c1cn2c(C(=O)NCC34CC5CC(CC(C5)C3)C4)cccc2n1` (stereo not shown) [Compound 912, 2-{5-[(adamantan-1-ylmethyl)carbamoyl]imidazo[1,2-a]pyridin-2-yl}-5-methylhexanoic acid] reads greater than 5.70.
Then `CCOC(=O)Cc1cn2c(C(=O)NCC(CC(C)C)c3ccc(Cl)cc3)cccc2n1` (stereo not shown) [Compound 913, ethyl (5-{[2-(4-chlorophenyl)-4-methylpentyl]carbamoyl}imidazo[1,2-a]pyridin-2-yl) acetate], with greater than 5.70.
`CCOC(=O)Cc1cn2c(C(=O)NCC3(c4ccc(Cl)cc4)CCCCC3)cccc2n1` [Compound 914, ethyl [5-({[1-(4-chlorophenyl)cyclohexyl]methyl}carbamoyl)imidazo[1,2-a]pyridin-2-yl] acetate]: the negative-log IC50 (pIC50) was greater than 5.70.
Then `O=C(NCC1(c2ccc(Cl)cc2)CCCCC1)c1cccc2nc(CSc3nnn[nH]3)cn12` [Compound 915, N-{[1-(4-chlorophenyl)cyclohexyl]methyl}-2-[(1H-tetrazol-5-ylthio)methyl] imidazo [1,2-a]pyridine-5-carboxamide], with greater than 5.70; and `CC(C)CC(CNC(=O)c1cccc2nc(CN3CCC[C@@H](N)C3)cn12)c1ccc(Cl)cc1` (stereo partly drawn) [Compound 916, 2-{[(3R)-3-aminopiperidin-1-yl]methyl}-N-[2-(4-chlorophenyl)-4-methylpentyl] imidazo [1,2-a]pyridine-5-carboxamide], with greater than 5.70.
As to `Cc1ccc(C(CNC(=O)c2cccc3nc(Cn4nnc(CCO)n4)cn23)CC(C)C)cc1` (stereo not shown) [Compound 917, 2-{[5-(2-hydroxyethyl)-2H-tetrazol-2-yl]methyl}-N-[4-methyl-2-(4-methylphenyl)pentyl] imidazo [1,2-a]pyridine-5-carboxamide], the negative-log IC50 (pIC50) is greater than 5.70.
`CC(C)CC(CNC(=O)c1cccc2nc(Cn3nnc(CCO)n3)cn12)c1ccc(Cl)cc1` (stereo not shown) [Compound 918, N-[2-(4-chlorophenyl)-4-methylpentyl]-2-{[5-(2-hydroxyethyl)-2H-tetrazol-2-yl]methyl}imidazo[1,2-a]pyridine-5-carboxamide]: the pIC50 is greater than 5.70.
Take `O=C(NCC1(c2ccc(Cl)cc2)CCCCC1)c1cccc2nc(Cn3nnc(CCO)n3)cn12` [Compound 919, N-{[1-(4-chlorophenyl)cyclohexyl]methyl}-2-{[5-(2-hydroxyethyl)-2H-tetrazol-2-yl]methyl}imidazo[1,2-a]pyridine-5-carboxamide]: the pIC50 was greater than 5.70.
Then `O=C(NCC1(c2ccc(C(F)(F)F)cc2)CCCCC1)c1cccc2nc(Cn3nnc(CCO)n3)cn12` [Compound 920, 2-{[5-(2-hydroxyethyl)-2H-tetrazol-2-yl]methyl}-N-({1-[4-(trifluoromethyl)phenyl]cyclohexyl}methyl)imidazo [1,2-a]pyridine-5-carboxamide], with greater than 5.70.
